The values below come from US20180271863A1, “TARGETING P2 PURINERGIC RECEPTORS TO TREAT HEPATOCELLULAR CARCINOMA (HCC)” (Baylor College of Medicine, priority 2015, published 2018).

Holding throughout (type): cell-based, human
Assay [1] deals with Huh7 cells. Put plainly: Western blotting of cyclin and CDK proteins in Huh7 cells. The protocol: (§1) Normal human primary hepatocytes isolated from healthy adults (no known history of HCC) in suspension or freshly-frozen prior to shipment (Cryoport Systems, CA) were purchased from Triangle Research Labs, NC. Fresh hepatocytes were plated on collagen-coated tissue culture plates or glass coverslips in Williams E complete media with additives (10% fetal bovine serum, 2 mM glutamine, […] insulin, 4 ng/ml glucagon, […] transferrin, 2.5 ng/ml sodium selenite, 10,000 U/ml penicillin, […] streptomycin, 50 g/ml gentamycin) for 3 h to ensure hepatocyte adherence to plates. Subsequently, hepatocytes were maintained in Williams E minimal media free from serum and growth factors for 24 h prior to treatment. Human hepatocellular carcinoma derived Huh7, and Hep3B, were cultured in Minimum Essential Medium Eagle (MEM); SNU-387 was cultured in Roswell Park Memorial Institute (RPMI) medium and PLC/PRF/5 cultured in Dulbecco's Modified Eagle's medium (DMEM). All maintenance culture media were supplemented with 10% fetal bovine serum (FBS), L-Glutamine (2 mM), penicillin (100 units/ml) and streptomycin ([…]) at 37° C. and 5% CO2. Cells were maintained in serum free media (containing 2 mM L-Glutamine, 100 units/ml penicillin and ([…])) streptomycin for 24 h prior to treatment.
Total protein extracts were obtained by homogenizing cells in total lysis buffer (50 mM Tris-HCl, pH 7.5, 0.5 M NaCl, 2 mM EGTA, 2 mM EDTA, 1.0% Triton X-100, 0.25% Deoxycholate, 1 m/ml pepstatin, 1.0 m/ml leupeptin, 1.0 m/ml aprotinin, 1.0 mM phenylmethylsulfonyl fluoride, 1.0 mM Dithiothreitol, 2.0 mM activated Na3VO4, and 2.0 mM NaF) and centrifuging at 14,000 rpm for 10 min (4° C.). Equal amounts of total proteins as determined by BCA protein Assay (Pierce, Rockford, Ill.) were analyzed by Western blotting. Blots were probed with antibody specific for a-tubulin or GAPDH to ensure equal loading of proteins in each lane.

Assay [2] deals with Huh7 cells. Put plainly: BrdU incorporation (proliferation) in Huh7 cells. Particulars: nucleotide 100 μM. The protocol: To determine whether P2 purinergic receptor activation influences HCC cell proliferation, BrdU incorporation was assessed in HCC cells maintained in SFM for 24 hours and treated with ATP for 24 hours. ATP treatment alone was sufficient to induce proliferation in each of these cell lines (Huh7, 34%; Hep3B, 46%; SNU-387, 47% and PLC/PRF/5, 24%), identifying nucleotides as liver cancer cell mitogens (FIG. 7A).
Extracellular ATP can be hydrolyzed to ADP and adenosine by ectonucleotidases at the plasma membrane. Therefore, Applicants tested the effects of ATPγS (non-hydrolyzable analog of ATP) or ADP (break down product of ATP) (100 μM) on Huh7 cell proliferation. ATPγS treatment alone was sufficient to induce BrdU incorporation as early as 12 hours (42%); maintained at 18 h (30%) and 24 h (29%) in Huh7 cells (FIG. 8). ADP was also able to independently increase the number of BrdU positive nuclei (12 h, 30%; 18 h, 35%; 24 h, 37%) (FIG. 8). Furthermore, ATP treatment (18 h) increased cell proliferation and viability in all four cell lines, as determined by MTT assay (Huh7, 65%; Hep3B, 81%; SNU-387, 90% and PLC/PRF/5, 43%) (FIG. 7B).
as §1
Formalin-fixed and paraffin embedded liver sections from HCC patients were analyzed by immunohistochemistry with anti-P2X3 antibody (Abcam, Cambridge, Mass.). HCC cells were grown on glass coverslips; BrdU (10 μM, Roche, Indianapolis, Ind.) was added to culture media for 1 h prior to fixation (cold acetone:methanol, 1:1) and stained using anti-BrdU antibody (DAKO, Carpinteria, Calif.) and DAB Peroxidase Substrate Kit (Vector Labs, Burlingame, Calif.), according to manufacturer's instructions. Counterstaining was done with hematoxylin. BrdU positive cells were counted and expressed as a percentage of the total number of cells in ten randomly selected high-power fields (20×) per coverslips.

Assay [3] deals with Huh7 cells. Put plainly: Western blotting for hippo pathway phosphorylation (Mst1/2, LATS, Yap) in Huh7 cells. The protocol: Total protein extracts were obtained by homogenizing cells in total lysis buffer and analyzed by Western blotting as described recently (Oncotarget 2015; 6:41162-41179). […] Therefore, Applicants performed in vitro studies to test whether activation of P2 purinergic receptors may affect the hippo pathway and its downstream effectors. Huh7 cells—human derived hepatocellular carcinoma cells—maintained in serum free media for 24 hours—were treated with P2 purinergic receptor agonists. […] ADP treatment alone was also sufficient to induce LATs phosphorylation (2 h-1.7 fold, 4 h-1.5 fold) (FIG. 20B). […] Hippo kinases Mst1/2 and Lats1/2 work through a phosphorylation cascade to phosphorylate Yap, thereby retaining Yap in the cytoplasm. In spite of nucleotide-mediated Mst1/2 and Lats phosphorylation, ATP, ADP and ATPγS treatment was individually insufficient to induce Yap phosphorylation. […] Similarly, ATP treatment alone increased nuclear YAP protein expression (1.7 fold) (FIG. 20D).
(In general: A western blot detects proteins with antibodies after separation by electrophoresis.)

Assay [4] relates to Huh7 cells. Put plainly: qRT-PCR of cyclin mRNA in Huh7 cells. The procedure:
Normal human primary hepatocytes isolated from healthy adults (no known history of HCC) in suspension or freshly-frozen prior to shipment (Cryoport Systems, CA) were purchased from Triangle Research Labs, NC. Fresh hepatocytes were plated on collagen-coated tissue culture plates or glass coverslips in Williams E complete media with additives (10% fetal bovine serum, 2 mM glutamine, […] insulin, 4 ng/ml glucagon, […] transferrin, 2.5 ng/ml sodium selenite, 10,000 U/ml penicillin, […] streptomycin, 50 g/ml gentamycin) for 3 h to ensure hepatocyte adherence to plates. Subsequently, hepatocytes were maintained in Williams E minimal media free from serum and growth factors for 24 h prior to treatment. Human hepatocellular carcinoma derived Huh7, and Hep3B, were cultured in Minimum Essential Medium Eagle (MEM); SNU-387 was cultured in Roswell Park Memorial Institute (RPMI) medium and PLC/PRF/5 cultured in Dulbecco's Modified Eagle's medium (DMEM). All maintenance culture media were supplemented with 10% fetal bovine serum (FBS), L-Glutamine (2 mM), penicillin (100 units/ml) and streptomycin ([…]) at 37° C. and 5% CO2. Cells were maintained in serum free media (containing 2 mM L-Glutamine, 100 units/ml penicillin and ([…])) streptomycin for 24 h prior to treatment. Total RNA was isolated from human livers or cells using Trizol Reagent according to manufacturer's instructions (Invitrogen, NY). Complementary DNA (cDNA) synthesis was performed by reverse transcription of total RNA (2 μg) with high capacity cDNA reverse transcription kit (Applied Biosystems, Foster city, CA). The cDNA product was amplified by qRT-PCR in Step One Plus Real-Time PCR system using SYBR Green PCR Master Mix (Applied Biosystems, Grand Island, N.Y.). Quantitative expression values were determined using the […] as specified by manufacturers using GAPDH as a control.
(In general: Quantitative PCR measures a nucleic acid by following its amplification.)

The test system of assay [5] is Huh7 cells. Nature of the assay: qRT-PCR of YAP target genes in Huh7 cells. The source says: Total RNA was isolated from human livers or cells and was amplified by qRT-PCR as described recently (Oncotarget 2015; 6:41162-41179). Next, Applicants tested whether extracellular nucleotide treatment may have an effect on YAP target genes important in hepatocellular carcinoma. […] Moreover, P2X3 antagonist (AF-353) pretreatment attenuated ATP mediated induction of survivin (FIG. 20G).

For `CSc1nc(N)c2ncn([C@@H]3O[C@H](COP(=O)(O)OP(=O)(O)OP(=O)(O)O)[C@@H](O)[C@H]3O)c2n1` [2-MeSATP], the “cyclin D3 expression” value in the assay with Huh7 cells [1] (2MeSATP 50 μM alone, 24 h) amounted to 1.9 fold.

`O=C(O)c1cc(C(=O)O)c(C(=O)N(Cc2cccc(Oc3ccccc3)c2)[C@H]2CCCc3ccccc32)cc1C(=O)O` [A317491]: the “effect on ATP induced cyclin D3 expression” value in the assay with Huh7 cells [1] (A317491 30 μM pre-treatment, ATP 24 h) is on record as “attenuated”.

For `Nc1ncnc2c1ncn2[C@@H]1O[C@H](COP(=O)(O)OP(=O)(O)O)[C@@H](O)[C@H]1O` [ADP], the “BrdU incorporation / BrdU positive nuclei” value with Huh7 cells [2] (12 h) came out at 30%. Moreover, the “BrdU incorporation / BrdU positive nuclei” value in the assay with Huh7 cells [2] (18 h) is recorded as 35%. Besides, the “BrdU incorporation / BrdU positive nuclei” value with Huh7 cells [2] (24 h) came out at 37%. Also, in the assay on Huh7 cells [3] (Huh7, 12 h treatment), the Yap phosphorylation was 0.2 fold and the “induction of Yap phosphorylation” value is “insufficient”. For the same molecule, in the assay with Huh7 cells [4] (12 h treatment), the “Cyclin D3 mRNA expression vs untreated cells” value turned out to be 2.7 fold. For the same molecule, the “Cyclin D3 mRNA expression vs untreated cells” value with Huh7 cells [4] (36 h treatment) is 2.8 fold. In the assay with Huh7 cells [5] (24 h treatment), the AREG gene expression is reported as 2.6 fold, the CTGF gene expression is 2.5 fold, the Sox9 gene expression came out at 1.4 fold and the “cyclin E gene expression” value amounted to 2.4 fold. Also, the survivin gene expression in the assay on Huh7 cells [5] (24 h treatment) is reported as 1.4 fold.

Turning to `Cc1nc(N=Nc2ccc(S(=O)(=O)O)cc2S(=O)(=O)O)c(COP(=O)(O)O)c(C=O)c1O` [PPADS], the “effect on ATPγS-induced AREG and CTGF expression” value in the assay on Huh7 cells [5] (ATPγS ± PPADS, 24 h) is “completely attenuated”.

For the molecule `Cc1ccc(C(=O)Nc2ccc(S(=O)(=O)O)c3cc(S(=O)(=O)O)cc(S(=O)(=O)O)c23)cc1NC(=O)c1cccc(NC(=O)Nc2cccc(C(=O)Nc3cc(C(=O)Nc4ccc(S(=O)(=O)O)c5cc(S(=O)(=O)O)cc(S(=O)(=O)O)c45)ccc3C)c2)c1` [Suramin], the “effect on nucleotide induction of cyclin D3 mRNA” value with Huh7 cells [4] (Suramin pre-treatment (30 minutes) before 24 hours nucleotide treatment) was “dose dependent attenuation”. In addition, the “effect on baseline cyclin D3 expression” value in the assay on Huh7 cells [4] (Suramin treatment alone) was “reduced”.

As to `O=c1ccn([C@@H]2O[C@H](COP(=O)(O)OP(=O)(O)OP(=O)(O)O)[C@@H](O)[C@H]2O)c(=O)[nH]1` [UTP], the Mst1/2 phosphorylation entry in the assay with Huh7 cells [3] (Huh7, serum free 24 hours, as early as 5 minutes, sustained at 4 hours) is reported as “significantly induced”.
